Results from EP2229935A1, “Peptide derivatives or pharmaceutically acceptable salts thereof, method for producing the same, use of said derivatives and pharmaceutical composition” (Nebolsin, Vladimir Evgenievich, priority 1997, dated 1999).
“And” between values parts separate entries of the source, which are not always exact repeats. Equal entries are not always repeated. Marks after values point to notes of the source that are not given here.

What was measured:
[1] = test system: mongrel male mice; assay: Average lifetime of mice in a closed volume (hypoxia); type: in vivo
Procedure: The tests of determining average lifetime of animals in a closed volume and on the model of acute hypobaric hypoxia at the minimum atmospheric rarefaction (170-185 mm Hg) were used to study antihypoxic activity of the compunds of general formula (I).
Mice were one by one placed into sealed glass jars and their lifetime was recorded.
The experiment was carried out on 90 mongrel male mice having initial body mass 20 ± 0,5 g housed in cages by 10 animals and given a standard vivarium ration. Average lifetime of mice in closed vessels having volume 250 ml was preliminarily determined and it was 22 to 25 minutes. All the groups included 10 animals each.
Experimental protocol: • a) - preliminary hypoxia for 12 minutes; • b) - first administration of a compound immediately following preliminary hypoxia; • c) - second administration of a compound in 24 hours after the first one, then daily for three days; • d) - recording lifetime of animals under hypoxic conditions in a sealed space 2 hours after the last administration of a compound.
The test compounds were dissolved in distilled water and orally administered to animals for 5 days.
Experimental groups: • Group 1 -(control) - without preliminary hipoxia with oral administration of distilled water for 5 days; • Groups 2 and 3 - administration of the compound XLIV using two doses 50 and 500 µg respectively; • Group 4 - oral administration of sodium oxybutyrate at a dose […] 2 hours before hypoxia; • Group 5 -(control)- with preliminary hypoxia for 12 minutes with subsequent administration of distilled water for 5 days; • Groups 6 and 7 - administration of the compound XLIV using two doses 50 and 500 µg respectively; • Groups 8 and 9 - administration of the compound III using two doses 50 and 500 µg respectively.

[2] = test system: hepatic P-450 cytochrome system; assay: Hexenal sleep duration in mice; type: in vivo
Summary of the method: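 Male mice (several inbred/hybrid lines, 18-20 g, n=10) and mongrel male guinea pigs (250-300 g, n=24) given compounds orally in drinking water for three days at 50 and 500 µg/kg. Hexenal given 24 h after last dose ([…]); sleep duration recorded in minutes.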

[3] = test system: hydroxyl radical; assay: Hydroxyl radical formation in the Fenton reagent (chemiluminescence); type: biochemical
[4] = test system: mongrel female rats; assay: Hepatoprotective activity: subchronic liver lesion (hepatitis) with CCl4; type: in vivo; conditions: for Cholesterol level, mg/100 ml VLDL-CS / Cholesterol level, mg/100 ml LDL-CS / Cholesterol level, mg/100 ml HDL-CS / Cholesterol level, mg/100 ml total-CS / TG level, mg/100ml / ALT, nM/dl / AST, nM/dl: blood serum; for Cholesterol level, mg/100 ml VLDL-CS: TG/5; for Cholesterol level, mg/100 ml LDL-CS: calculated by formula; for ALT, nM/dl / AST, nM/dl: oral 8 days
Procedure: Hepatoprotective properties of the compounds were studied on a model of subchronic liver lesion (hepatitis) with carbon quadrichloride.
70 mongrel female rats with initial body mass 190-200 g fed a standard vivarium ration, were used in experiment. Animals were divided into 7 groups (10 rats each): • Group 1 - control one; during the first four days of experiment animals were subcutaneously injected 0.2 ml vaseline oil; • Group 2 - during the first four days animals were subcutaneously injected 50% CCl4 solution in vaseline oil at a rate of 0.1 ml per 100 g body mass; • Group 3 - Legalon in a starch gel was administered orally for 8 days at a dose 30 mg/kg against the background of CCl4 administration; […] , resepectively, was administered in a way similar to group III; […] , resepectively, was administered in a way similar to group III.
The test compounds and Legalon were administered to animals 1 hour prior to CCl4 administration. 24 hours after the last administration of the drugs, animals were decapitated.
Activity of blood serum transaminases ALT and AST was assessed using the conventional Frenkel-Rightman method [Laboratory examination methods in the clinic. Ed. by Menshikov V.V. Moscow, Meditsina publishers (1969), 302 pp.].
The published method [Rodionova L.P. Modification of blood serum trigyceride level determination method. Laboratomoye delo (Laboratory Matter) (1980), No 5, pp. 297-299] was used to determine blood serum TG level.
Blood serum LP final product MDA was determined using the published method [Korobeinikova E.N. Modification of lipid peroxydation product determination in reaction with thiobarbituric acid. Laboratomoye delo (Laboratory Matter) (1989), No 7, pp. 8-10]. Concentration of TBA-active products was calculated using regression equation: C = 0.21 + 0.26D, [formula] where C - concentration of TBA-active products (in nM MDA per 1 ml of serum), D - index D535 -D580 (in optic density units).
Total hepatic lipids were extracted using the modified Folch method [Cates M. Technology of Lipidology. Moscow, Mir publishers (1975), pp. 74-76]. Quantative content of lipid fractions was assessed with thin layer chromatography method (TLC) using the system of solvents hexane:diethyl ether:acetic acid at ratio 80:20:2. Zones of individual lipid fractions were determined using 10% alcohol solution of phosphoromolyobdenic acid which following elution were spectrophotometrically analysed at 600 nm.
Hepatic MDA level was determined using the published method [Stalnaya I.D., Garishvili T.G. Malonic dialdehyde determination method using thiobarbituric acid. In: Modem methods in biochemistry. Moscow, Meditsina publishers (1977), pp. 66-69]. MDA quantity was calculated using molar extinction coefficient value of stained trimethynic complex formed by MDA with two TBA molecules: E = 1.56 × 10^5 (cm)^-1 × M^-1 [formula]

[5] = with preliminary hypoxia 12 minutes, oral 5 days, 0,05 mg/kg
[6] = with preliminary hypoxia 12 minutes, oral 5 days, 0,50 mg/kg
[7] = 1 µM, control of the series as in the table
[8] = 0.01 mM, control of the series as in the table
[9] = 0.1 mM, control of the series as in the table
[10] = 1 mM, control of the series 7839 ± 171, 1120 ± 163, 4974 ± 283 or 1332 ± 172
[11] = rats, CCl4 hepatitis, 0.05 µg/kg
[12] = rats, CCl4 hepatitis, 0.5 µg/kg
[13] = rats, CCl4 hepatitis, daily dose 0.05 mg/kg
[14] = rats, CCl4 hepatitis, daily dose 0.50 mg/kg
[15] = rats, CCl4 hepatitis, 0.05 mg/kg
[16] = rats, CCl4 hepatitis, 0.50 mg/kg
[17] = rats, CCl4 hepatitis, liver, 0.05 µg/kg
[18] = rats, CCl4 hepatitis, liver, 0.5 µg/kg

Compound	Lifetime (seconds) [1, 5]	Lifetime (seconds) [1, 6]	relative effect: I+/I- ([3]; 1 µM)	Chemiluminiscence intensity (mV) + σn-1 [3, 7] [mV]	relative effect: I+/I- ([3]; 0.01 mM)	Chemiluminiscence intensity (mV) + σn-1 [3, 8] [mV]	relative effect: I+/I- ([3]; 0.1 mM)	Chemiluminiscence intensity (mV) + σn-1 [3, 9] [mV]	relative effect: I+/I- ([3]; 1 mM)	Chemiluminiscence intensity (mV) + σn-1 [3, 10] [mV]	Cholesterol level, mg/100 ml VLDL-CS [4, 11]	Cholesterol level, mg/100 ml VLDL-CS [4, 12]	Cholesterol level, mg/100 ml LDL-CS [4, 11]	Cholesterol level, mg/100 ml LDL-CS [4, 12]	Cholesterol level, mg/100 ml HDL-CS [4, 11] [mg/100 ml]	Cholesterol level, mg/100 ml total-CS [4, 11] [mg/100 ml]	TG level, mg/100ml [4, 11]	Cholesterol level, mg/100 ml HDL-CS [4, 12] [mg/100 ml]	Cholesterol level, mg/100 ml total-CS [4, 12] [mg/100 ml]	TG level, mg/100ml [4, 12]	further results
O=C(O)CCCC(=O)NCCc1c[nH]cn1 [compound III, N-GLUTARYLHISTAMINE]	1670,6±25,3*^5 seconds	1532,6±96,0 seconds	0.98	1100 ± 84	0.87	972 ± 79	0.64	719 ± 71	0.15	164 ± 14	17.7 ± 2.0 mg/100 ml	15.8 ± 1.0 p<0.05 mg/100 ml	19.6 ± 1.4 p<0.01 mg/100 ml	12.0 ± 0.6 mg/100 ml	52.3 ± 2.9	89.5 ± 3.8	88.0 ± 10.2 mg/100ml	59.3 ± 2.6	87.0 ± 2.6	78.6 ± 5.4 p<0.05 mg/100ml	Hexenal sleep duration (minutes) ([2]; CBF1 mice, oral 3 days, 50 µg/kg, control 25.91 ± 1.57): 19.61 ± 2.69** minutes; Hexenal sleep duration (minutes) ([2]; CBF1 mice, oral 3 days, 500 µg/kg, control 25.91 ± 1.57): 22.02 ± 1.45 * minutes; Lipid composition (in percent of total lipids) FCS ([4]; 5e-05 mg/kg): 20.3 ± 0.8 p<0.05% of total lipids; Lipid composition (in percent of total lipids) Phospholipids ([4]; 5e-05 mg/kg): 24.4 ± 0.7 p<0.05% of total lipids; Lipid composition (in percent of total lipids) Triglycerides ([4]; 5e-05 mg/kg): 35.5 ±1.1% of total lipids; Lipid composition (in percent of total lipids) FCS ([4]; 0.0005 mg/kg): 18.9 ± 0.7% of total lipids; Lipid composition (in percent of total lipids) Phospholipids ([4]; 0.0005 mg/kg): 23.8 ± 1.0 p<0.05% of total lipids; Lipid composition (in percent of total lipids) Triglycerides ([4]; 0.0005 mg/kg): 35.3 ± 0.7% of total lipids; ALT, nM/dl [4, 13]: 624 ± 31 nM/dl; AST, nM/dl [4, 13]: 478 ± 26 nM/dl; ALT, nM/dl [4, 14]: 609 ± 42 nM/dl; AST, nM/dl [4, 14]: 522 ± 33 nM/dl; Hepatic MDA, nM/l [4, 15]: 5.00 ± 0.15 p<0.05 nM/l; Serum MDA, nM/l [4, 15]: 5.86 ± 0.70 nM/l; Hepatic MDA, nM/l [4, 16]: 4.60 ± 0.52 p<0.05 nM/l; Serum MDA, nM/l [4, 16]: 5.77 ± 0.15 p<0.05 nM/l
γ-L-glutamylhistamine [compound XLIV]	1415,5±47,2 seconds	1844,8±93,2*^5 seconds	1.0	7747 ± 259	0.83	6444 ± 267	0.59	4625 ± 393	0.28 (*)	2197 ± 311	13.9 ± 1.1 p<0.01 mg/100 ml	12.4 ± 0.7 p<0.001 mg/100 ml	21.9 ± 1.1 p<0.001 mg/100 ml	17.1 ± 1.0 p<0.01 mg/100 ml	49.6 ± 2.5	85.3 ± 3.9	68.3 ± 5.7 p<0.001 mg/100ml	57.5 ± 5.1	87.2 ± 6.5	62.4 ± 3.9 p<0.001 mg/100ml	Lifetime (seconds) ([1]; without preliminary hypoxia, oral 5 days, 0,05 mg/kg): 2110,6±123,6**^1 seconds; Lifetime (seconds) ([1]; without preliminary hypoxia, oral 5 days, 0,50 mg/kg): 1742,8±68,1*^1 seconds; Hexenal sleep duration ([2]; BALB/c*h75 mice, oral 3 days, 50 µg/kg, control 29.16 ± 5.68): 26.50 ± 3.49 min; Hexenal sleep duration (minutes) ([2]; BALB/c*h75 mice, oral 3 days, 500 µg/kg, control 29.16 ± 5.68): 16.72 ± 1.27*** minutes; Hexenal sleep duration (minutes) ([2]; BDF1 mice, oral 3 days, 500 µg/kg, control 23.78 ± 0.78): 20.33 ± 0.59* minutes; Hexenal sleep duration (minutes) ([2]; mouse, in vivo, po): 17.98 ± 1.66* minutes and 16.13 ± 1.86** minutes; ALT, nM/dl [4, 13]: 599 ± 18 nM/dl; AST, nM/dl [4, 13]: 470 ± 17 nM/dl; ALT, nM/dl [4, 14]: 551 ± 28 nM/dl; AST, nM/dl [4, 14]: 475 ± 19 nM/dl; Lipid composition (in percent of total lipids) FCS [4, 17]: 18.0 ± 0.8% of total lipids; Lipid composition (in percent of total lipids) Phospholipids [4, 17]: 22.8 ± 0.9% of total lipids; Lipid composition (in percent of total lipids) Triglycerides [4, 17]: 39.9 ± 1.7% of total lipids; Lipid composition (in percent of total lipids) FCS [4, 18]: 20.6 ± 0.8 p<0.05% of total lipids; Lipid composition (in percent of total lipids) Phospholipids [4, 18]: 26.1 ± 0.6 p<0.001% of total lipids; Lipid composition (in percent of total lipids) Triglycerides [4, 18]: 33.9 ± 1.0 p<0.05% of total lipids; Hepatic MDA, nM/l [4, 15]: 4.47 ± 0.45 p<0.05 nM/l; Serum MDA, nM/l [4, 15]: 5.82 ± 0.38 p<0.05 nM/l; Hepatic MDA, nM/l [4, 16]: 3.51 ± 0.30 p<0.001 nM/l; Serum MDA, nM/l [4, 16]: 4.72 ± 0.57 p<0.01 nM/l
